Experimental data taken from US6673827B1, “Methods of treating fungal infections with inhibitors of NAD synthetase enzyme” (priority 1999, dated 2004).
Where “and” joins values, the source holds several entries; their conditions need not be identical. Equal entries are not always repeated. Where two headings read alike, the source gives them in different places.

What was measured:
[1] = test system: Candida tropicalis (ATCC 28707-amphotericin B-resistant); assay: Minimum Inhibitory Concentration (MIC) against yeast, broth dilution; type: cell-based; conditions: 20 hours, mean of duplicate
[2] = target: T1, NAD synthetase (recombinant protein from B. subtilis; purified) (Bacillus subtilis, UniProt P08164); assay: NAD synthetase enzyme inhibition assay (coupled enzymatic assay, HTS); type: biochemical
T1 construct: made in house
T1 sequence (P08164 whole entry): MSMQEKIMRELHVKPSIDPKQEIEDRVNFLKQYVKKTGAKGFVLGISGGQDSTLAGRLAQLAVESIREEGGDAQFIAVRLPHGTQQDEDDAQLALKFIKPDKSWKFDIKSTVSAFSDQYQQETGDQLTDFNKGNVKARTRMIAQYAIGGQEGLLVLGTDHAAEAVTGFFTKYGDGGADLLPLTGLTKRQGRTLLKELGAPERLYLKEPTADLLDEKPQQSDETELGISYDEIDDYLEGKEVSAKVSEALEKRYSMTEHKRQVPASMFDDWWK
Experimental: NAD Synthetase Enzyme Inhibition Assay-Determination of Test Compound Concentrations Providing 50% Inhibition ([…]) of the Maximum Enzyme Rate
The potential inhibitory activity of the synthetic compounds was determined by the use of a coupled enzymatic assay. The coupled assay involves two steps as summarized below. [drawing 98]
The measurement of inhibitory activities of the test compounds was facilitated by the use of a high through-put screening system (HTS system). The HTS system utilizes an integrated Sagian 2M ORCA robotic system coordinating the functions of a Beckman Biomek 2000 liquid handler and a Molecular Devices SpectraMax Plus spectrophotometer. The 2M ORCA robotic station is responsible for the movement of all hardware and the integration of multiple stations on the worksurface. The Biomek 2000 is programmed to perform all phases of liquid dispensing and mixing. The SpectraMax Plus spectrophotometer is equipped to monitor absorbance in a 96-well plate format.
The Biomek 2000 mixes these components utilizing a predefined mixing program. […] The reaction is monitored by measuring the increase in absorbance at 340 nm (NADH). The linear portion of the reaction is monitored for 180 sec. The initial velocity is determined using Softmax Pro, the software supplied with the Molecular Devices SpectrMax Plus spectrophotometer.
The test compounds were supplied as a stock solution with a concentration of 50 mM dissolved in 100% dimethyl sulfoxide (DMSO). An initial screen was conducted on all compounds using a 2 or 3 concentration screen. The 2 panel screen used concentrations of 0.2 mM and 0.1 mM for the compounds. The 3 panel screen used concentrations of 0.2 mM, 0.1 mM, and 0.05 mM. […] The IC50 values for each compound were determined graphically from a plot of % inhibition versus […].

[3] = test system: Candida albicans KJP-000531594; assay: In vitro study of inhibition of growth and lethality against yeast (MIC/MLC susceptibility test), isolate C; type: cell-based; conditions: Candida albicans, 1st pair of lines
[4] = test system: Candida tropicalis (ATCC 750); assay: Minimum Inhibitory Concentration (MIC) against yeast, broth dilution; type: cell-based; conditions: 37° C., 20 hours, mean of duplicate
[5] = test system: Cryptococcus neoformans DLB-1027594CNC; assay: In vitro study of inhibition of growth and lethality against yeast (MIC/MLC susceptibility test), isolate G; type: cell-based; conditions: Cryptococcus neoformans, 1st pair of lines, isolate assigned by line order
[6] = test system: Cryptococcus neoformans SLP-BC0012854; assay: In vitro study of inhibition of growth and lethality against yeast (MIC/MLC susceptibility test), isolate H; type: cell-based; conditions: Cryptococcus neoformans, 2nd pair of lines, isolate assigned by line order
[7] = test system: Torulopsis glabrata ERH-BC9938274; assay: In vitro study of inhibition of growth and lethality against yeast (MIC/MLC susceptibility test), isolate F; type: cell-based; conditions: Torulopsis glabrata, 1st pair of lines, isolate assigned by line order
[8] = test system: Candida tropicalis ATCC 28707; assay: In vitro study of inhibition of growth and lethality against yeast (MIC/MLC susceptibility test), isolate B; type: cell-based; conditions: Candida tropicalis, 1st pair of lines, isolate assigned by line order
Male CD-1 mice = assay: In vivo toxicity: intraperitoneal (IP) dosage in mice resulting in 50% lethality (LD50); conditions: single IP dose, observed 14 days
[9] = test system: Candida tropicalis ATCC 750; assay: In vitro study of inhibition of growth and lethality against yeast (MIC/MLC susceptibility test), isolate A; type: cell-based; conditions: Candida tropicalis, 2nd pair of lines, isolate assigned by line order
[10] = test system: Candida albicans LH-000664533; assay: In vitro study of inhibition of growth and lethality against yeast (MIC/MLC susceptibility test), isolate D; type: cell-based; conditions: Candida albicans, 2nd pair of lines, isolate assigned by line order
[11] = test system: Candida albicans (ATCC 10231); assay: Minimum Inhibitory Concentration (MIC) against yeast, broth dilution; type: cell-based; conditions: 37° C., 20 hours, mean of duplicate
[12] = test system: Torulopsis glabrata JHC-BC9951635; assay: In vitro study of inhibition of growth and lethality against yeast (MIC/MLC susceptibility test), isolate E; type: cell-based; conditions: Torulopsis glabrata, 2nd pair of lines, isolate assigned by line order

C[n+]1cccc(C(=O)OCCCCCCCCn2ccc3cc(OCc4ccccc4)ccc32)c1 [Compound 769]
MIC Candida tropicalis (ATCC 28707) ([1]; 37° C.): 0.098 µg/mL
IC50 (μg/mL) for Inhibit. of NAD Synthetase ([2]; table of structures used in the yeast assay (Example 4)): 20 µg/mL
Minimum Inhibitory Conc. (MIC), 24 hr. ([3]; read at 24 hr, isolate not given, assigned by line order and MLC of Table 4B): 2 µg/mL and 1 µg/mL
Minimum Inhibitory Conc. (MIC), 48 hr. ([3]; read at 48 hr, isolate assigned by line order): 2 µg/mL and 4 µg/mL
Minimum Lethal Conc. (MLC) ([3]; isolate assigned by line order): 8 µg/mL
MIC Candida tropicalis (ATCC 750) [4]: 0.098 µg/mL
Minimum Inhibitory Conc. (MIC), 48 hr. ([5]; read at 48 hr): 0.5 µg/mL
Minimum Inhibitory Conc. (MIC), 72 hr. ([5]; read at 72 hr): 1 µg/mL
Minimum Lethal Conc. (MLC) [5]: 2 µg/mL
Minimum Inhibitory Conc. (MIC), 48 hr. ([6]; read at 48 hr): 0.5 µg/mL and 1 µg/mL
Minimum Inhibitory Conc. (MIC), 72 hr. ([6]; read at 72 hr): 0.5 µg/mL and 1 µg/mL
Minimum Lethal Conc. (MLC) [6]: 2 µg/mL
Minimum Inhibitory Conc. (MIC), 24 hr. ([7]; read at 24 hr): 1 µg/mL
Minimum Inhibitory Conc. (MIC), 48 hr. ([7]; read at 48 hr): 2 µg/mL
Minimum Lethal Conc. (MLC) [7]: 2 µg/mL
Minimum Inhibitory Conc. (MIC), 24 hr. ([8]; read at 24 hr): 0.25 µg/mL
Minimum Inhibitory Conc. (MIC), 48 hr. ([8]; read at 48 hr): 0.5 µg/mL
Minimum Lethal Conc. (MLC) [8]: 2 µg/mL
LD50 (Male CD-1 mice): 43 mg/kg
Minimum Inhibitory Conc. (MIC), 24 hr. ([9]; read at 24 hr): 1 µg/mL
Minimum Inhibitory Conc. (MIC), 48 hr. ([9]; read at 48 hr): 1 µg/mL
Minimum Lethal Conc. (MLC) [9]: 2 µg/mL
Minimum Inhibitory Conc. (MIC), 24 hr. ([10]; read at 24 hr): 1 µg/mL
Minimum Inhibitory Conc. (MIC), 48 hr. ([10]; read at 48 hr): 2 µg/mL
Minimum Lethal Conc. (MLC) [10]: 8 µg/mL
MIC Candida albicans (ATCC 10231) [11]: 4.7 µg/mL
Minimum Inhibitory Conc. (MIC), 24 hr. ([12]; read at 24 hr): 0.5 µg/mL
Minimum Inhibitory Conc. (MIC), 48 hr. ([12]; read at 48 hr): 1 µg/mL
Minimum Lethal Conc. (MLC) [12]: 1 µg/mL

C[n+]1cccc(C(=O)OCCCCCCCCCn2ccc3ccccc32)c1 [Compound 970]
IC50 ([2]; read-out: IC50: concentration of test compound producing 50% inhibition of the NAD synthetase enzyme rate, Table 1, recombinant B. subtilis NAD synthetase, absorbance at 340 nm): 20 µM
MIC Candida albicans (ATCC 10231) [11]: 0.8 µg/mL

COC(=O)c1cc2ccccc2n1CCCCCCCCCOC(=O)Cc1ccc([N+](C)(C)C)cc1 [Compound 986]
MIC Candida albicans (ATCC 10231) [11]: 2.3 µg/mL

C[N+](C)(C)c1ccc(CC(=O)OCCCCCCCCOc2ccc(OCc3ccccc3)cc2)cc1.[I-] [Compound 1094]
MIC ([1]; Candida tropicalis, ATCC28707, 37° C.): 0.78 µg/mL
IC50 [2]: 20 µM
IC50 ([2]; IC50 (μg/mL) for Inhibit. of NAD Synthetase, table of structures used in the yeast assay (Example 4)): 31.7 µM
MIC ([3]; KJP000531594, 24 h, read at 24 hr, isolate not given, assigned by line order and MLC of Table 4B, read-out: Minimum Inhibitory Conc. (MIC), 24 hr.): 1 µg/mL
MIC ([3]; KJP000531594, 48 h, read at 48 hr, isolate assigned by line order, read-out: Minimum Inhibitory Conc. (MIC), 48 hr.): 2 µg/mL
MIC ([4]; Candida tropicalis, ATCC750): 0.78 µg/mL
MIC ([5]; DLB1027594CNC, 48 h, read at 48 hr, read-out: Minimum Inhibitory Conc. (MIC), 48 hr.): 1 µg/mL
MIC ([5]; DLB1027594CNC, 72 h, read at 72 hr, read-out: Minimum Inhibitory Conc. (MIC), 72 hr.): 1 µg/mL
MFC ([5]; DLB1027594CNC, read-out: Minimum Lethal Conc. (MLC)): 2 µg/mL
MIC ([6]; SLPBC0012854, 48 h, read at 48 hr, read-out: Minimum Inhibitory Conc. (MIC), 48 hr.): 1 µg/mL
MIC ([6]; SLPBC0012854, 72 h, read at 72 hr, read-out: Minimum Inhibitory Conc. (MIC), 72 hr.): 1 µg/mL
MFC ([6]; SLPBC0012854, read-out: Minimum Lethal Conc. (MLC)): 2 µg/mL
MIC ([7]; Nakaseomyces glabratus, ERHBC9938274, 24 h, read at 24 hr, read-out: Minimum Inhibitory Conc. (MIC), 24 hr.): 0.5 µg/mL
MIC ([7]; Nakaseomyces glabratus, ERHBC9938274, 48 h, read at 48 hr, read-out: Minimum Inhibitory Conc. (MIC), 48 hr.): 1 µg/mL
MFC ([7]; Nakaseomyces glabratus, ERHBC9938274, read-out: Minimum Lethal Conc. (MLC)): 4 µg/mL
Minimum Inhibitory Conc. (MIC), 24 hr. ([7]; read at 24 hr): 1 µg/mL
MFC ([8]; ATCC28707, read-out: Minimum Lethal Conc. (MLC)): 2 µg/mL
MIC ([8]; ATCC28707, 24 h, read at 24 hr, read-out: Minimum Inhibitory Conc. (MIC), 24 hr.): 0.5 µg/mL
MIC ([8]; ATCC28707, 48 h, read at 48 hr, read-out: Minimum Inhibitory Conc. (MIC), 48 hr.): 0.5 µg/mL
MFC ([9]; ATCC750, read-out: Minimum Lethal Conc. (MLC)): 4 µg/mL
MIC ([9]; ATCC750, 24 h, read at 24 hr, read-out: Minimum Inhibitory Conc. (MIC), 24 hr.): 1 µg/mL
MIC ([9]; ATCC750, 48 h, read at 48 hr, read-out: Minimum Inhibitory Conc. (MIC), 48 hr.): 1 µg/mL
MIC ([10]; LH000664533, 24 h, read at 24 hr, read-out: Minimum Inhibitory Conc. (MIC), 24 hr.): 2 µg/mL
MIC ([10]; LH000664533, 48 h, read at 48 hr, read-out: Minimum Inhibitory Conc. (MIC), 48 hr.): 2 µg/mL
MFC ([10]; LH000664533, read-out: Minimum Lethal Conc. (MLC)): 8 µg/mL
MIC ([11]; Candida albicans, ATCC10231, read-out: MIC Candida albicans (ATCC 10231)): 6.2 µg/mL
MIC ([12]; Nakaseomyces glabratus, JHCBC9951635, 24 h, read at 24 hr, read-out: Minimum Inhibitory Conc. (MIC), 24 hr.): 0.5 µg/mL
MIC ([12]; Nakaseomyces glabratus, JHCBC9951635, 48 h, read at 48 hr, read-out: Minimum Inhibitory Conc. (MIC), 48 hr.): 1 µg/mL
MFC ([12]; Nakaseomyces glabratus, JHCBC9951635, read-out: Minimum Lethal Conc. (MLC)): 4 µg/mL
Minimum Inhibitory Conc. (MIC), 24 hr. ([12]; read at 24 hr): 1 µg/mL
